Measured values as given in patent publication US10376499B2, “Combination therapy for treatment of resistant bacterial infections” (priority 2014, dated 2019).
≈ marks a conversion by molar mass, not a printed value.

Legend:
A. baumannii [1] = test: MIC90 of common antibiotics+compound 1, 196 contemporary clinical isolates of A. baumannii (Example 4); settings: B-lactam + Cmpd 1 (4 μg/mL)
Klebsiella pneumoniae = test: MIC, recent Enterobacteriaceae clinical isolates: Klebsiella pneumoniae (Examples 7, 11)
Escherichia coli = test: MIC, recent Enterobacteriaceae clinical isolates: Escherichia coli (Examples 7, 11); settings: Escherichia coli
A. baumannii [2] = test: MIC, 20 diverse recent strains of A. baumannii (Example 10); type: cell-based, Acinetobacter baumannii; settings: N 20 A. baumannii strains
Citrobacter spp = test: MIC, recent Enterobacteriaceae clinical isolates: Citrobacter spp (Examples 7, 11); type: cell-based; settings: Citrobacter spp, N 7
Enterobacter cloacae = test: MIC, recent Enterobacteriaceae clinical isolates: Enterobacter cloacae (Examples 7, 11); type: cell-based
Enterobacteriaceae = test: organism not typed; type: cell-based
A. baumannii [3] = test: MIC by broth microdilution (CLSI), panel of 60 A. baumannii clinical isolates (Example 1)

C[C@H]1[C@H](NC(=O)/C(=N\OC(C)(C)C(=O)O)c2csc(N)n2)C(=O)N1S(=O)(=O)O [Aztreonam]
MIC90 (A. baumannii [1]): >64 µg/mL

CO/N=C(\C(=O)N[C@@H]1C(=O)N2C(C(=O)[O-])=C(C[N+]3(C)CCCC3)CS[C@H]12)c1csc(N)n1 [Cefepime]
MIC90 (A. baumannii [1]): 32 µg/mL

CC(C)(O/N=C(\C(=O)N[C@@H]1C(=O)N2C(C(=O)[O-])=C(C[n+]3ccccc3)CS[C@H]12)c1csc(N)n1)C(=O)O [Ceftazidime]
MIC90 (A. baumannii [1]): 32 µg/mL

C[C@@H](O)[C@H]1C(=O)N2C(C(=O)O)=C(SCCNC=N)C[C@H]12 [Imipenem, (5R,6S)-3-[[2-(formimidoylamino)ethyl]thio]-6-[(R)-1-hydroxyethyl]-7-oxo-1-azabicyclo[3.2.0]hept-2-ene-2-carboxylic acid]
MIC90 (A. baumannii [1]): 16 µg/mL | MIC50 (Klebsiella pneumoniae): 0.25 µg/mL (≈ 0.835 µM) | MIC90 (Klebsiella pneumoniae): 8 µg/mL (≈ 26.7 µM) | MIC50 (Escherichia coli): 0.25 µg/mL (≈ 0.835 µM) | MIC90 (Escherichia coli): 0.5 µg/mL (≈ 1.67 µM) | MIC50 (A. baumannii [2]): 64 µg/mL (≈ 214 µM) | MIC90 (A. baumannii [2]): > 64 µg/mL | MIC Max (A. baumannii [2]): > 64 µg/mL | MIC Min (A. baumannii [2]): 0.25 µg/mL (≈ 0.835 µM) | MIC50 (Citrobacter spp; read-out: MIC50): 0.5 µg/mL (≈ 1.67 µM) | MIC90 (Citrobacter spp; read-out: MIC90): 4 µg/mL (≈ 13.4 µM) | MIC90 (Enterobacter cloacae; N 10): 1 µg/mL (≈ 3.34 µM) | MIC50 (Enterobacter cloacae; N 10, read-out: MIC50): 0.5 µg/mL (≈ 1.67 µM) | MIC50 (Enterobacteriaceae): 0.5 µg/mL (≈ 1.67 µM) | MIC90 (Enterobacteriaceae): 4 µg/mL (≈ 13.4 µM)

CCN1CCN(C(=O)N[C@@H](C(=O)N[C@@H]2C(=O)N3[C@@H]2SC(C)(C)[C@@H]3C(=O)O)c2ccccc2)C(=O)C1=O [Piperacillin]
MIC90 (A. baumannii [1]): 32 µg/mL

gentamycin
MIC (A. baumannii [3]; strain ARC593, OXA-98): 8 µg/mL | MIC (A. baumannii [3]; strain ARC2058, OXA-95): 1 µg/mL | MIC (A. baumannii [3]; strain ARC2461, OXA-66, TEM-1): >32 µg/mL | MIC (A. baumannii [3]; strain ARC2462, TEM-1, OXA-66): >32 µg/mL | MIC (A. baumannii [3]; strain ARC2598, OXA*, TEM-1, OXA-113): 2 µg/mL | MIC (A. baumannii [3]; strain ARC2635, OXA-65, OXA-40, TEM-1): >32 µg/mL | MIC (A. baumannii [3]; strain ARC2636, OXA-65, OXA-40, TEM-1): >32 µg/mL | MIC (A. baumannii [3]; strain ARC2674, SHV-5, OXA-113): 8 µg/mL | MIC (A. baumannii [3]; strain ARC2675, SHV-5, OXA-113): >32 µg/mL | MIC (A. baumannii [3]; strain ARC2681, OXA-40, TEM-1, OXA-132): >32 µg/mL | MIC (A. baumannii [3]; strain ARC2682, SHV-5, OXA-113): >32 µg/mL | MIC (A. baumannii [3]; strain ARC2777, OXA-172, TEM-1): 16 µg/mL | MIC (A. baumannii [3]; strain ARC2778, OXA-40, TEM-1, OXA-65): >32 µg/mL | MIC (A. baumannii [3]; strain ARC2779 (A. baumannii/calcoaceticus complex), OXA-2, VIM-2): >32 µg/mL | MIC (A. baumannii [3]; strain ARC2780 (A. baumannii/calcoaceticus complex), OXA*, OXA-2, IMP-1): >32 µg/mL | MIC (A. baumannii [3]; strain ARC2782, OXA-66, OXA-23, TEM-1, PER-1): >32 µg/mL | MIC (A. baumannii [3]; strain ARC2788, OXA-65, TEM-1): 16 µg/mL | MIC (A. baumannii [3]; strain ARC3484, TEM-1, OXA-23, OXA-64): >32 µg/mL | MIC (A. baumannii [3]; strain ARC3485, OXA-82): 1 µg/mL | MIC (A. baumannii [3]; strain ARC3486, OXA-72, OXA-66, TEM-1): >32 µg/mL | MIC (A. baumannii [3]; strain ARC3487, OXA-20, OXA-58, OXA-66): 8 µg/mL | MIC (A. baumannii [3]; strain ARC3488, OXA*, OXA-68): >32 µg/mL | MIC (A. baumannii [3]; strain ARC3489, OXA*, OXA-68): >32 µg/mL | MIC (A. baumannii [3]; strain ARC3490, TEM-1+, PSE-2, OXA-69): 16 µg/mL | MIC (A. baumannii [3]; strain ARC3491 (A. baumannii/calcoaceticus complex), OXA-215): 2 µg/mL | MIC (A. baumannii [3]; strain ARC3492, OXA-40, OXA-132, TEM-1): >32 µg/mL | MIC (A. baumannii [3]; strain ARC3493, OXA-40, OXA-66): >32 µg/mL | MIC (A. baumannii [3]; strain ARC3494, OXA-65): 0.25 µg/mL | MIC (A. baumannii [3]; strain ARC3495, OXA-40, OXA-109): >32 µg/mL | MIC (A. baumannii [3]; strain ARC3513, TEM-1, OXA-23, OXA-65): >32 µg/mL | MIC (A. baumannii [3]; strain ARC3515, OXA-64, OXA-58): 4 µg/mL | MIC (A. baumannii [3]; strain ARC3657, OXA-130): 0.25 µg/mL | MIC (A. baumannii [3]; strain ARC3658, OXA-66, PER-1, TEM-1, OXA-23): >32 µg/mL | MIC (A. baumannii [3]; strain ARC3659, OXA-23, OXA*): >32 µg/mL | MIC (A. baumannii [3]; strain ARC3882, OXA-23, NDM-1, OXA-10*): >32 µg/mL | MIC (A. baumannii [3]; strain ARC5073, OXA-23, TEM-1, OXA-64, PER-1): 0.5 µg/mL | MIC (A. baumannii [3]; strain ARC5074, GES*, TEM-1, OXA-51): 0.125 µg/mL | MIC (A. baumannii [3]; strain ARC5075, SHV-5, OXA-113): >32 µg/mL | MIC (A. baumannii [3]; strain ARC5076, TEM-1, OXA-23, OXA-66): 8 µg/mL | MIC (A. baumannii [3]; strain ARC5077, OXA*, OXA-72): >32 µg/mL | MIC (A. baumannii [3]; strain ARC5079, OXA-72, OXA-65): 8 µg/mL | MIC (A. baumannii [3]; strain ARC5080, OXA-71, OXA-40): >32 µg/mL | MIC (A. baumannii [3]; strain ARC5081, OXA-94, OXA-23): 0.25 µg/mL | MIC (A. baumannii [3]; strain ARC5082, OXA-66, OXA-23): 0.5 µg/mL | MIC (A. baumannii [3]; strain ARC5083, OXA-66, OXA-23): >32 µg/mL | MIC (A. baumannii [3]; strain ARC5084, IMP-4(B), OXA-58, OXA-65): >32 µg/mL | MIC (A. baumannii [3]; strain ARC5085, OXA*, TEM-1): >32 µg/mL | MIC (A. baumannii [3]; strain ARC5086, OXA*, TEM-1, OXA-72, OXA-66): >32 µg/mL | MIC (A. baumannii [3]; strain ARC5087, OXA-66, OXA-23): >32 µg/mL | MIC (A. baumannii [3]; strain ARC5088, OXA-20, OXA-58, OXA-66): 8 µg/mL | MIC (A. baumannii [3]; strain ARC5089, PER*, TEM-1, OXA-23, OXA-66): >32 µg/mL | MIC (A. baumannii [3]; strain ARC5091, OXA-82, OXA-23): >32 µg/mL | MIC (A. baumannii [3]; strain ARC5092, OXA-23, OXA-64): >32 µg/mL
